{
  "source": "patent US9283244B2",
  "about": "“Treatment of cancer by inhibiting activity or expression of late SV-40 factor” (Virginia Commonwealth University, priority 2010, dated 2016)",
  "key": {"LSF-17 cells [1]": {"system": "LSF-17 cells", "assay": "Cell viability by standard MTT assay, LSF-17 cells", "format": "cell-based, human", "details": "SU11274 5 μM", "procedure": "FIGS. 12A-F. Inhibition of CD44 and c-Met by SU11274 blocks LSF function. A. LSF-17 cells were treated with normal IgG or anti-CD44 antibody and then subjected to Matrigel invasion assay. (B, C) Cell viability (MTT) assay of LSF-17 (B) and QGY-7703 (C) cells treated with SU11274 (5 μM) for the indicated time period. (D, E) Matrigel invasion assays of LSF-17 (D) and QGY-7703 (E) cells treated with SU11274 (5 μM). For SU11274 removal, cells were treated with SU11274 for 24 h before seeding them in the invasion chamber in SU11274-free condition. For A-E, data represent mean±SEM. F. HepG3 cells were untreated or treated with OPN (100 ng/ml) and with SU11274 (5 μM) for 24 h and the expression of the indicated proteins were detected by Western blot analysis. Asterisk (*) represents statistically significant difference (p<0.05). Primary rat hepatocytes were isolated and cultured as described (19). SNU-423 cells were obtained from ATCC and cultured as instructed. HepG3, QGY-7703, Hep3B, HuH7, Focus and HEK-293 cells were cultured as described (20). Cell viability was determined by standard MTT assays as described (5). Colony formation, anchorage-independent growth in soft agar and matrigel invasion assays were performed exactly as described (5). […] LSF-17 cells and QGY-7703 cells were treated with the chemical inhibitor of c-Met, SU11274 (5 μM), and cell viability and Matrigel invasion was monitored. […]"}, "QGY-7703 cells [2]": {"system": "QGY-7703 cells", "assay": "Cell viability by standard MTT assay, QGY-7703 cells", "format": "cell-based, human", "details": "SU11274 5 μM", "procedure": "(§1) FIGS. 12A-F. Inhibition of CD44 and c-Met by SU11274 blocks LSF function. A. LSF-17 cells were treated with normal IgG or anti-CD44 antibody and then subjected to Matrigel invasion assay. (B, C) Cell viability (MTT) assay of LSF-17 (B) and QGY-7703 (C) cells treated with SU11274 (5 μM) for the indicated time period. (D, E) Matrigel invasion assays of LSF-17 (D) and QGY-7703 (E) cells treated with SU11274 (5 μM). For SU11274 removal, cells were treated with SU11274 for 24 h before seeding them in the invasion chamber in SU11274-free condition. For A-E, data represent mean±SEM. F. HepG3 cells were untreated or treated with OPN (100 ng/ml) and with SU11274 (5 μM) for 24 h and the expression of the indicated proteins were detected by Western blot analysis. Asterisk (*) represents statistically significant difference (p<0.05).\n(§2) FIGS. 13A-F. Genetic inhibition of c-Met by shRNA blocks LSF function. […] A. Expression of the indicated proteins was detected in the indicated cells by Western blot analysis. […] D. QGY-7703 cells were transfected with control scrambled siRNA (siCon) or c-Met siRNA (siMet) and cell viability was measured by MTT assay. […] F. The expression of the indicated proteins was detected in the indicated cells by Western blot analysis. […]\n(§3) Primary rat hepatocytes were isolated and cultured as described (19). […] Cell viability was determined by standard MTT assays as described (5). […]"}, "parental HepG3 cells": {"system": "parental HepG3 cells", "assay": "Cell viability, parental HepG3 cells", "format": "cell-based, human", "details": "SU11274 treatment; data not shown", "procedure": "Primary rat hepatocytes were isolated and cultured as described (19). SNU-423 cells were obtained from ATCC and cultured as instructed. HepG3, QGY-7703, Hep3B, HuH7, Focus and HEK-293 cells were cultured as described (20). Cell viability was determined by standard MTT assays as described (5). Colony formation, anchorage-independent growth in soft agar and matrigel invasion assays were performed exactly as described (5). We next investigated the importance of c-Met activation in mediating LSF function. LSF-17 cells and QGY-7703 cells were treated with the chemical inhibitor of c-Met, SU11274 (5 μM), and cell viability and Matrigel invasion was monitored. […] For invasion assay cells were treated with SU11274 for 24 h, a time point when no significant effect on cell viability was observed."}, "LSF-17 cells [3]": {"system": "LSF-17 cells", "assay": "Matrigel invasion assay, LSF-17 cells", "format": "cell-based, human", "procedure": "FIGS. 8A-D. Inhibition of OPN abrogates LSF-induced tumorigenesis and metastasis. The indicated clones were subcutaneously implanted in athymic nude mice. A. Tumor volume and tumor weight were measured 3 weeks after implantation. B. Graphical representation of metastatic lung nodules in the animals injected with the LSF-17consh-15 and LSF-17-OPNsh-18 clones via tail vein. The data represent mean±SEM. Inset: H&E sections of lungs of animals injected with the indicated clones. C. Parental HepG3 cells were treated with conditioned media from Control-8 or LSF-17 clone of HepG3 cells and then subjected to matrigel invasion. D. Matrigel invasion assay using LSF17 clone of HepG3 cells in the presence of neutralizing antibodies. Integrin: anti-αvβ3 integrin antibody. […]\nFIGS. 12A-F. Inhibition of CD44 and c-Met by SU11274 blocks LSF function. […] F. HepG3 cells were untreated or treated with OPN (100 ng/ml) and with SU11274 (5 μM) for 24 h and the expression of the indicated proteins were detected by Western blot analysis. […]\nas §3\nWe next investigated the importance of c-Met activation in mediating LSF function. LSF-17 cells and QGY-7703 cells were treated with the chemical inhibitor of c-Met, SU11274 (5 μM), and cell viability and Matrigel invasion was monitored. […]"}, "QGY-7703 cells [4]": {"system": "QGY-7703 cells", "assay": "Matrigel invasion assay, QGY-7703 cells", "format": "cell-based, human", "procedure": "as §1, §2, §3"}, "c-Met": {"target": "T1, c-Met (Homo sapiens, UniProt P08581)", "T1 construct": "endogenous in cells; host or cells: HepG3 cells; LSF-17 clone of HepG3 (stably overexpresses LSF, not c-Met)", "T1 sequence (P08581 25-1390)": "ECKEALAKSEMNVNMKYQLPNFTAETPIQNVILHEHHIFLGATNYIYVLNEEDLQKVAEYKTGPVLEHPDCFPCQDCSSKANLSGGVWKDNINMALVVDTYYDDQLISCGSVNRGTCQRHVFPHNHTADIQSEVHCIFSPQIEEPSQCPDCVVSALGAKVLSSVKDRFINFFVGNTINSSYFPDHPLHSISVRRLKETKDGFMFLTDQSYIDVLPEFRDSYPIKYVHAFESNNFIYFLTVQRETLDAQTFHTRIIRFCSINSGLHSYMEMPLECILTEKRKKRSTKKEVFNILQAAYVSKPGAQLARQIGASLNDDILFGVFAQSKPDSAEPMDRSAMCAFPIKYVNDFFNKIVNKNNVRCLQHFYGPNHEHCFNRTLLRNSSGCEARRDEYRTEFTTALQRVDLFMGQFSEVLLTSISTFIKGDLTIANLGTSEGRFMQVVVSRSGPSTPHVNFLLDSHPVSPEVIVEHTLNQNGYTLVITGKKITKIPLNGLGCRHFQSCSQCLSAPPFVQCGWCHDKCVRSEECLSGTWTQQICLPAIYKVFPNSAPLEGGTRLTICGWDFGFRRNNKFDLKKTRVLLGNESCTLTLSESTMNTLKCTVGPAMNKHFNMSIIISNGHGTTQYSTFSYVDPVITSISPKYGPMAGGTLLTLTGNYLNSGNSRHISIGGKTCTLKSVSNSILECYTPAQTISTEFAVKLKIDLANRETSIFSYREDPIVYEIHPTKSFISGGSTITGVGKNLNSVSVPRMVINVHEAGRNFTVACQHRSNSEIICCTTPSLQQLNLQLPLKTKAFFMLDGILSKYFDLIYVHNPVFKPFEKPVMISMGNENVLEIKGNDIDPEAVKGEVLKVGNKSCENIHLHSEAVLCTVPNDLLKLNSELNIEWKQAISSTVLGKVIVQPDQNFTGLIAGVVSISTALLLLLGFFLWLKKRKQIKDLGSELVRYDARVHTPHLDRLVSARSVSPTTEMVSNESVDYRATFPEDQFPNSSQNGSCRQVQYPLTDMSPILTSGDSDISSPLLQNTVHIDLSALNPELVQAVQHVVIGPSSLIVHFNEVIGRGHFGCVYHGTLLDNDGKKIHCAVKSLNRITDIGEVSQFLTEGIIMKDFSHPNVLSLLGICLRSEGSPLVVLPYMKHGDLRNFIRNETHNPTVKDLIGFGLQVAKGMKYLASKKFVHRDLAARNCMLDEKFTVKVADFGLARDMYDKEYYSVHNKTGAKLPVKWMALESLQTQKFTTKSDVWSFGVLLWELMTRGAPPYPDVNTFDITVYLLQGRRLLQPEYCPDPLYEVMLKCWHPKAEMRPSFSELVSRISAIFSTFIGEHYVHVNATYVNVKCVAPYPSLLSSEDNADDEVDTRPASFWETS", "assay": "Western blot of c-Met activation (p-c-Met) in HepG3 cells", "format": "cell-based", "procedure": "FIGS. 10A-D. OPN activates c-Met. A. HepG3 cells were treated with OPN (100 ng/ml) for the indicated time points and p-c-Met and total c-Met levels were analyzed by Western blot analysis. B. Expression of OPN and p-c-Met was determined by immunohistochemical analysis in FFPE sections of normal liver and matched HCC. A representative figure is shown from one patient. C. Statistical correlation between OPN and phospho-c-Met levels in 50 human HCC patients analyzed by Pearson's test. D. Left panel: LSF-17consh-15 (Consh-15) is a clone of LSF-17 cells that stably expresses control scrambled shRNA and LSF-17-OPNsh-6 (OPNsh-6) and LSF-17-OPNsh-18 (OPNsh-18) are clones of LSF-17 cells stably expressing OPN shRNA. The expression of the indicated proteins was detected by Western blot analysis. Right panel, LSF-17 clone of HepG3 cells were treated with normal IgG (mouse and rabbit; Santa Cruz), anti-αvβ3 integrin antibody (mouse; Millipore) or anti-CD44 antibody (rabbit; Santa Cruz) at a concentration of 20 μg/ml for 24 h and the expression of the indicated proteins was detected by Western blot analysis.\nas §1\n(§4) Preparation of whole cell lysates and Western blot analyses were performed as described (5). The primary antibodies used were anti-LSF (1:2,000; mouse monoclonal; BD Biosciences), anti-pERK (1:2,000; rabbit polyclonal; Cell Signaling), anti-ERK (1:2,000; rabbit polyclonal; Cell Signaling), anti-pAKT (1:1,000; rabbit polyclonal; Cell Signaling) and anti-AKT (1:1,000; rabbit polyclonal; Cell Signaling). Blots were stripped and normalized by re-probing with anti-β-tubulin (1:1,000; mouse monoclona; Sigma).\nTo confirm the link between OPN and c-Met, HepG3 cells were treated with OPN (100 ng/ml) for 24 h in the presence or absence of SU11274. […] Treatment with OPN increased p-Akt/Akt ratio to 1.42 which was decreased to 0.63 upon SU11274 treatment."}, "Akt": {"system": "Akt", "assay": "Western blot of Akt activation in HepG3 cells", "format": "cell-based, human", "procedure": "as §1, §4\nTreatment with OPN increased p-Akt/Akt ratio to 1.42 which was decreased to 0.63 upon SU11274 treatment."}, "ERK": {"system": "ERK", "assay": "Western blot of ERK activation in HepG3 cells", "format": "cell-based, human", "details": "24 h", "procedure": "as §1\nPreparation of whole cell lysates and Western blot analyses were performed as described (5). The primary antibodies used were anti-LSF (1:2,000; mouse monoclonal; BD Biosciences), anti-pERK (1:2,000; rabbit polyclonal; Cell Signaling), anti-ERK (1:2,000; rabbit polyclonal; Cell Signaling), anti-pAKT (1:1,000; rabbit polyclonal; Cell Signaling) and anti-AKT (1:1,000; rabbit polyclonal; Cell Signaling). Blots were stripped and normalized by re-probing with anti-β-tubulin (1:1,000; mouse monoclona; Sigma). […]"}, "CD44 and c-Met": {"target": "T2, CD44 and c-Met (Homo sapiens, UniProt P16070)", "T2 construct": "endogenous in cells; host or cells: HepG3 cells (lysates)", "T2 sequence (P16070 21-742)": "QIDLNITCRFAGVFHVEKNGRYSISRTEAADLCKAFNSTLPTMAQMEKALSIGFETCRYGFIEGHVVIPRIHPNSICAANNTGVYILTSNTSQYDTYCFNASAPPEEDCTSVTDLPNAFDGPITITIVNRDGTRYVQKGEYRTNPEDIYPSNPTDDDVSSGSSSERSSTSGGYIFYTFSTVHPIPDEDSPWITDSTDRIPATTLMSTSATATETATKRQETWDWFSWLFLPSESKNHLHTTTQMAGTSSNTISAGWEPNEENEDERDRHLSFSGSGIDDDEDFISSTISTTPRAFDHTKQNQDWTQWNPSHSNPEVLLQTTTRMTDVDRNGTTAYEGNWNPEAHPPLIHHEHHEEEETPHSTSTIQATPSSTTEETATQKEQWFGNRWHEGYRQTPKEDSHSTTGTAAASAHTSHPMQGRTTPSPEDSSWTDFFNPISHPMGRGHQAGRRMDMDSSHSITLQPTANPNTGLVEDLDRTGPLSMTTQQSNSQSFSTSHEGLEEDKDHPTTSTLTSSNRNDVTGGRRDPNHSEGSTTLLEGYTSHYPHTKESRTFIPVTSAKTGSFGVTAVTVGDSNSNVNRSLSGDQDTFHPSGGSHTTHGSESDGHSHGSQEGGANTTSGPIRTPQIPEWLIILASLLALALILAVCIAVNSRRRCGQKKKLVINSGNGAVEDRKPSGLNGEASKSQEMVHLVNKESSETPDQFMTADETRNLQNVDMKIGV", "T2 sequence (P08581 308-1390 partner limits assumed)": "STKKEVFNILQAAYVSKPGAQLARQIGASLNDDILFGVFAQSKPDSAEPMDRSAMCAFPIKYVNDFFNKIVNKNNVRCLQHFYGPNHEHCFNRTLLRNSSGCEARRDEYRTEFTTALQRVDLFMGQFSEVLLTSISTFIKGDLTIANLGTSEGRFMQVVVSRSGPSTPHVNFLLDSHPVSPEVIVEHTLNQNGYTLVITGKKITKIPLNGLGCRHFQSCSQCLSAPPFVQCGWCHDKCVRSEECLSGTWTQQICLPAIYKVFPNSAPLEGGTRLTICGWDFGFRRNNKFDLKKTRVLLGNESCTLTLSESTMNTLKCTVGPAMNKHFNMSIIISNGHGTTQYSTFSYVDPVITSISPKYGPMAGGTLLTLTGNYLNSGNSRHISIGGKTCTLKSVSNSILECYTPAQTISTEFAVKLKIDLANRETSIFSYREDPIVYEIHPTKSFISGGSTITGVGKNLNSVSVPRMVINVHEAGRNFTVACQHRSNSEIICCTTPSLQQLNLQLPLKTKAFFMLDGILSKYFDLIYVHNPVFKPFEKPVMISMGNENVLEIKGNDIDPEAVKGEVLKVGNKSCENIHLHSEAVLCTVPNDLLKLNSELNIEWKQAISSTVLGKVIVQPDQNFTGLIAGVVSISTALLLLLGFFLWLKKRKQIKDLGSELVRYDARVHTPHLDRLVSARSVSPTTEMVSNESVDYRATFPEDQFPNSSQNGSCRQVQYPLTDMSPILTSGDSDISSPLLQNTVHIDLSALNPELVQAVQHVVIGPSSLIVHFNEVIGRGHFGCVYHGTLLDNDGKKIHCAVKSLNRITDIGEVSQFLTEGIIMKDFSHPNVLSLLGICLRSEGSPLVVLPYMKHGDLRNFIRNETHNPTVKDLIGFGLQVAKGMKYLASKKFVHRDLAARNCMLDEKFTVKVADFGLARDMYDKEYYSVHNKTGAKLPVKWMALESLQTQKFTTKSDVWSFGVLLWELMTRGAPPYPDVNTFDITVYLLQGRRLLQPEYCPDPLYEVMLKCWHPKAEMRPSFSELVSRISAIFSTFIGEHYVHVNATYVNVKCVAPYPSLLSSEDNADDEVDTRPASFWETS", "T2 sequence (P08581 25-307 partner limits assumed)": "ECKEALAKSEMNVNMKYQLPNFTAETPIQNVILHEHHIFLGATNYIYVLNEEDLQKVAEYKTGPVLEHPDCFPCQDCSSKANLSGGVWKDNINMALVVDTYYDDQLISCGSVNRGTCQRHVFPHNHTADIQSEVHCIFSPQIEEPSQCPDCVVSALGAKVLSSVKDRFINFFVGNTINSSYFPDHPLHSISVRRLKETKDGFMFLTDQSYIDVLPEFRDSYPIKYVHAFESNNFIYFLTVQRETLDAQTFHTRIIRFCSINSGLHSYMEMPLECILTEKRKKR", "assay": "Co-immunoprecipitation of CD44 and c-Met in HepG3 cells", "format": "cell-based", "procedure": "FIGS. 11A-E. OPN facilitates c-Met activation via CD44 receptor. A. Left panel, HepG3 cells were cultured in serum-free conditions. Right panel, HepG3 cells were cultured in serum-containing medium and untreated or treated with OPN (100 ng/ml) for 24 h. Cell lysates were subjected to immunoprecipitation by anti-c-Met antibody and immunoblotting with anti-CD44, anti-[…] integrin and anti-c-Met antibodies. B. The culture conditions are the same as in A. Immunoprecipitation was done with anti-CD44 antibody and immunoblotting was done with anti-c-Met and anti-CD44 antibody. C. HepG3 cell were cultured in serum-free conditions and then untreated or treated with OPN (100 ng/ml) for 24 h. Immunoprecipitation was done with anti-CD44 antibody and immunoblotting was done with anti-p-c-Met or anti-CD44 antibodies. D. Lysates from LSF-17 and QGY-7703 cells were subjected to immunoprecipitation by anti-c-Met antibody and immunoblotting by anti-CD44, anti-αvβ3 integrin and anti-c-Met antibodies. E. Lysates from LSF-17 and QGY-7703 cells were subjected to immunoprecipitation by anti-CD44 antibody and immunoblotting by anti-c-Met, anti-p-c-Met and anti-CD44 antibodies. The bottom panel serves as inputs for D and E. IgG was used as a control in all the experiments.\nWe next explored the molecular mechanism of c-Met activation by OPN using co-immunoprecipitation analysis. […]"}, "[5]": {"details": "treated 24 h, then SU11274-free during invasion assay"}, "[6]": {"details": "co-treatment with SU11274 5 μM, 24 h"}},
  "data": [
    {"compound": "Cc1[nH]c(/C=C2\\C(=O)Nc3ccc(S(=O)(=O)N(C)c4cccc(Cl)c4)cc32)c(C)c1C(=O)N1CCN(C)CC1", "note": "[SU11274]", "values": [
      {"measurement": "cell viability (MTT)", "setting": "LSF-17 cells [1]", "value": "significantly decreased"},
      {"measurement": "cell viability (MTT)", "setting": "QGY-7703 cells [2]", "value": "significantly decreased"},
      {"measurement": "viability of parental HepG3 cells", "setting": "parental HepG3 cells", "value": "did not affect the viability"},
      {"measurement": "Matrigel invasion", "setting": "LSF-17 cells [3]; SU11274 5 μM, 24 h", "value": "significantly inhibited"},
      {"measurement": "Matrigel invasion after removal of SU11274", "setting": "LSF-17 cells [3]; [5]", "value": "significantly rescued the cells from inhibition of invasion"},
      {"measurement": "Matrigel invasion", "setting": "QGY-7703 cells [4]; SU11274 5 μM, 24 h", "value": "significantly inhibited"},
      {"measurement": "Matrigel invasion after removal of SU11274", "setting": "QGY-7703 cells [4]; [5]", "value": "significantly rescued the cells from inhibition of invasion"},
      {"measurement": "inhibition of basal and OPN-induced activation of c-Met", "setting": "c-Met; [6]", "value": "significant inhibition"},
      {"measurement": "p-Akt/Akt ratio", "setting": "Akt; OPN 100 ng/ml plus SU11274, 24 h", "value": 0.63},
      {"measurement": "p-Akt/Akt ratio", "setting": "Akt; SU11274 alone (basal), control group 0.58", "value": 0.05},
      {"measurement": "inhibition of basal and OPN-induced activation of Akt", "setting": "Akt; [6]", "value": "significant inhibition"},
      {"measurement": "inhibition of basal and OPN-induced activation of ERK", "setting": "ERK; SU11274 5 μM", "value": "partial inhibition"}
    ]},
    {"compound": "OPN: purified osteopontin, a secreted protein, added to cells at 100 ng/ml", "values": [
      {"measurement": "activation of c-Met", "setting": "c-Met; OPN 100 ng/ml, 24 h", "value": "significantly activated"},
      {"measurement": "total c-Met level", "setting": "c-Met; OPN treatment", "value": "did not change"},
      {"measurement": "activated c-Met level at 6 h post-treatment", "setting": "c-Met; purified OPN 100 ng/ml", "value": "remained higher than basal level"},
      {"measurement": "time of peak level of c-Met activation post-treatment", "setting": "c-Met; purified OPN 100 ng/ml", "value": 30, "unit": "min"},
      {"measurement": "activation of Akt", "setting": "Akt; OPN 100 ng/ml, 24 h", "value": "significantly activated"},
      {"measurement": "p-Akt/Akt ratio", "setting": "Akt; OPN 100 ng/ml, 24 h, control group 0.58", "value": 1.42},
      {"measurement": "activation of ERK", "setting": "ERK; OPN 100 ng/ml", "value": "significantly activated"},
      {"measurement": "binding affinity between c-Met and CD44", "setting": "CD44 and c-Met; serum-containing culture, OPN 100 ng/ml", "value": "did not affect the binding affinity"},
      {"measurement": "association between CD44 and phospho-c-Met", "setting": "CD44 and c-Met; serum-free conditions, OPN 100 ng/ml 24 h", "value": "significantly increased"}
    ]}
  ]
}
